Experimental findings from US6413997B1, “3-(substituted phenyl)-5-(substituted heterocyclyl)-1,2,4-triazole compounds” (priority 1998, dated 2002) are described below.

The test system of series [1] is twospotted spider mite (tetranychus uriticae). Briefly: Two-spotted spider mite test, ovicide method on cotton leaf discs. The format is in vivo. Conditions: leaf disc dip, 6 days, hatched larvae versus untreated discs. Here is the method: Insecticidal Test for Two-spotted Spider Mite (Tetranychus urticae)
Ten adult female two-spotted spider mites were placed on eight 2.2 cm leaf discs of cotton leaf, allowed to oviposit over 24 hours, and thereafter removed. The leaf discs were immersed in 100 ppm test solutions for 3 seconds, then allowed to dry with sixteen discs left untreated as a negative control. Discs were placed on an agar substrate and held at 24° C. and 90% relative humidity for 6 days.

In series [2] the test system is cotton aphids (aphis gossypii). Briefly: Insecticidal test for cotton aphid, foliar spray on infested squash cotyledons. The format is in vivo. Conditions: 50 ppm spray, graded after 3 days, versus untreated check. Here is the method:
Insecticidal Test for Cotton Aphid (Aphis gossypii)
To prepare spray solutions, 2 mg of each test compound was dissolved into 2 mL of a 90:10 acetone:ethanol solvent. This 2 mL of chemical solution was added to 38 mL of water containing 0.05% Tween 20 surfactant to produce a 50 ppm spray solution.
Squash cotyledons were infested with cotton aphid (all life stages16-20 hours prior to application of spray solution. The solution was sprayed on both sides of each infested squash cotyledon (0.5 mL×2 each side with a sweeping action using a total of 2 mL of spray solution. The plants were allowed to air dry and held for 3 days in a controlled room at 26° C. and 40% RH after which time the test was graded. Grading was by actual count using a dissecting microscope and comparison of test counts to the untreated check. Results are given in Table 1 as percent control based on population reduction versus the untreated.

On to `Cn1nc(-c2c(F)cccc2F)nc1-c1snc(-c2cccc(C(F)(F)F)c2)c1Br` [Compound 16], for which the “TSSM: activity at 100 ppm against twospotted spider mite (rating of % mortality / percent control)” value (from here on “TSSM … (rating of % mortality / percent control)”) in series [1] is listed as “G (Inactive)”. For the same molecule, the “CA: activity at 50 ppm against cotton aphids (rating of % mortality / percent control)” value (from here on “CA … (rating of % mortality / percent control)”) in series [2] is on record as “B (81-90)”.
Taken in the same sequence, the figures for `Cn1nc(-c2c(F)cccc2F)nc1-c1cc(C(C)(C)C)no1` [Compound 30] were “G (Inactive)” and “D (61-70)”.
Consider `Cc1ncsc1-c1nc(-c2c(F)cccc2F)nn1C` [Compound 37], for which the “TSSM … (rating of % mortality / percent control)” value in series [1] is given as “A (91-100)”. In series [2], the “CA … (rating of % mortality / percent control)” value is listed as “B (81-90)”.
Taken in the same sequence, the figures for `Cc1nc(Cl)sc1-c1nc(-c2c(F)cccc2Cl)nn1C` [Compound 40] were “A (91-100)” and “A (91-100)”.
For `Cc1nc(-c2nc(-c3c(F)cccc3F)nn2C)cs1` [Compound 48], the “TSSM … (rating of % mortality / percent control)” value in series [1] is given as “G (Inactive)”. For the same molecule, the “CA … (rating of % mortality / percent control)” value in series [2] is recorded as “D (61-70)”.
In the case of `Cc1nc(-c2nc(-c3c(F)cccc3Cl)nn2C)cs1` [Compound 49], the “TSSM … (rating of % mortality / percent control)” value in series [1] was “C (71-80)”.
Turning to `Cc1ncoc1-c1nc(-c2c(F)cccc2F)nn1C` [Compound 55, 3-(2,6-Difluorophenyl)-5-(4-methyloxazol-5-yl)-1-methyl[1,2,4]triazole], the mortality at 100 ppm in series [1] (foliar, 144 h, read-out: TSSM: activity at 100 ppm against twospotted spider mite (rating of % mortality / percent control)) is 0 to 51%. Also, in series [2] (Aphis gossypii, foliar, 72 h, read-out: CA: activity at 50 ppm against cotton aphids (rating of % mortality / percent control)), the mortality at 50 ppm fell in the range of 0 to 51%.
As for `CCn1nc(C)cc1-c1nc(-c2c(F)cccc2F)nn1C` [Compound 60], the “TSSM … (rating of % mortality / percent control)” value in series [1] is “G (Inactive)”. Also, in series [2], the “CA … (rating of % mortality / percent control)” value is given as “B (81-90)”.
Taken in the same sequence, the figures for `Cc1cc(-c2nc(-c3c(F)cccc3Cl)nn2C)n(C)n1` [Compound 63] were “G (Inactive)” and “A (91-100)”.
For the molecule `CCn1nc(-c2nc(-c3c(F)cccc3Cl)nn2C)cc1C` [Compound 74], the “CA … (rating of % mortality / percent control)” value in series [2] was “A (91-100)”.
In the case of `Cc1nn(C)c(Cl)c1-c1nc(-c2c(F)cccc2Cl)nn1C` [Compound 76], in series [1], the “TSSM … (rating of % mortality / percent control)” value is listed as “A (91-100)”. The “CA … (rating of % mortality / percent control)” value in series [2] is recorded as “B (81-90)”.
Regarding `Cn1nc(-c2c(F)cccc2Cl)nc1-c1c(C(F)(F)F)nn(C)c1Cl` [Compound 77], in series [1], the “TSSM … (rating of % mortality / percent control)” value was “A (91-100)”.
Still for that read-out and setting: with `CCCc1c(-c2nc(-c3c(F)cccc3F)nn2C)cnn1-c1ccc(Cl)cc1` [Compound 80] the entry was “G (Inactive)”.
For the molecule `Cc1nc(-c2ccc(Cl)cc2)sc1-c1nc(-c2c(F)cccc2F)nn1C` [Compound 90], in series [1], the “TSSM … (rating of % mortality / percent control)” value is listed as “A (91-100)”.
`Cc1nc(C(F)(F)F)sc1-c1nc(-c2c(F)cccc2F)nn1C` [Compound 91]: the “CA … (rating of % mortality / percent control)” value in series [2] is on record as “C (71-80)”.
